A short description of the series: Solubility of polydatin in the microemulsion compositions. The series is classed as physicochemical. The note with it: solubilized in microemulsion. The text has this:
The inventors of the instant disclosure discovered that the incorporation of polydatin into the microemulsion compositions disclosed herein results in a variety of surprising and unexpected results. […] A higher amount of solubilized polydatin is particularly beneficial in cosmetic compositions for application to the skin because it allows for increased transdermal delivery. The inventors also unexpectedly discovered that polydatin acts as a “clarifying agent,” i.e., it improves or enhances the transparency (clarity) of microemulsion compositions. […] Both formulations include baicalin. […] Thus, in addition to polydatin, the microemulsion composition of the instant disclosure are effective for incorporating baicalin into cosmetic and/or pharmaceutical compositions.

One compound from patent US10456343B2, “Microemulsion compositions comprising polydatin and method of use” (L'OREAL, priority 2017, dated 2019) can be followed below.

For the compound `OC[C@H]1O[C@@H](Oc2cc(O)cc(/C=C/c3ccc(O)cc3)c2)[C@H](O)[C@@H](O)[C@@H]1O` [polydatin, 3,4′,5-trihydroxystibene-3-β-mono-D glucoside], the “solubility of polydatin in the microemulsion compositions” value is “up to 1.5%”.
